The text below walks through data of PMC9200736, “Complete biosynthetic pathway to the antidiabetic drug acarbose” (Nature Communications, 2022).

In data set [1] the target is T1, AcbU (Actinoplanes sp. SE50/110, UniProt Q27GS3).
T1 construct: recombinant from pRSET-B in E. coli BL21(DE3)/pLysS, Ni-NTA purified
T1 sequence (Q27GS3 1-492): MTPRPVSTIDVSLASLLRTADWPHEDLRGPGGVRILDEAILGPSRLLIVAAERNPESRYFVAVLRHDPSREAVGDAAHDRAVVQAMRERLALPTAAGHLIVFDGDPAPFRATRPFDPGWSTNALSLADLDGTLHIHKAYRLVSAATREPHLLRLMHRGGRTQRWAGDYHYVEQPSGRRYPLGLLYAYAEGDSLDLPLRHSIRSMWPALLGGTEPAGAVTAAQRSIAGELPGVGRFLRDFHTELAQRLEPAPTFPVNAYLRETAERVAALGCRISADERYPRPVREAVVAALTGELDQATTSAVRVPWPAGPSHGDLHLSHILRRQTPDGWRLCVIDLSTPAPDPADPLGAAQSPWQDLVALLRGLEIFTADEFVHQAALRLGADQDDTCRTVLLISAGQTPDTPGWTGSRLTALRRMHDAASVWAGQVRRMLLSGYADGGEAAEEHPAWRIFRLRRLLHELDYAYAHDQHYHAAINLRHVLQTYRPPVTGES
Put plainly: PK/LDH coupled assay, A340; LC-MS of product. It counts as biochemical. The following applies: ATP […], MgCl2 […], Tris-HCl pH […] °C; substrate […].

Data set [2] deals with T2, ValC (Streptomyces hygroscopicus, UniProt Q3T6E2).
T2 construct: recombinant from pRSETB-valC in E. coli BL21(DE3)/pLysS, Ni-NTA purified
T2 sequence (Q3T6E2 1-351): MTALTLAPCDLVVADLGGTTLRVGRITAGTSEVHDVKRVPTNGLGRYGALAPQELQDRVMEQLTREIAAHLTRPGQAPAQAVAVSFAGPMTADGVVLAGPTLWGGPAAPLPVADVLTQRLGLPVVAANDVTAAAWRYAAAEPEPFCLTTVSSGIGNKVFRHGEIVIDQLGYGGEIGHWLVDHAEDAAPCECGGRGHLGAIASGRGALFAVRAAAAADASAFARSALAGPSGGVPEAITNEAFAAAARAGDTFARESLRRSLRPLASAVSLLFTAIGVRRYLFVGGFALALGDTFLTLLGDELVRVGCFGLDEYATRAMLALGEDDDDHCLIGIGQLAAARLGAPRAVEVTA
Put plainly: preparative phosphorylation, conversion by PK/LDH assay. Type of data set: biochemical. The following applies: ATP 6 mM, MgCl2 5 mM, Tris-HCl pH 7.5, 30 °C, 6 h.

The target of data set [3] is T3, AcbK (Actinoplanes sp. SE50/110, UniProt Q8RMD4).
T3 construct: recombinant from pET28b in E. coli BL21(DE3)/pLysS, Ni-NTA purified
T3 sequence (Q8RMD4 whole entry): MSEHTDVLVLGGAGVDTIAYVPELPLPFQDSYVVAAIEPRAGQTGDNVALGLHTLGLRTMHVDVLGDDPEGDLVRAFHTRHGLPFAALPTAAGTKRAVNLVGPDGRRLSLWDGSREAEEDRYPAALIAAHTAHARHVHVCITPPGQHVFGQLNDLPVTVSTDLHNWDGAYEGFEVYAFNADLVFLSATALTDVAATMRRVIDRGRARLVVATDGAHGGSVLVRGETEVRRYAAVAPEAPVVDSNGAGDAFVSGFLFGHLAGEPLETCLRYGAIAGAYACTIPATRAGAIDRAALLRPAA
Described as above. It counts as biochemical. The conditions noted are these: ATP 6 mM, MgCl2 5 mM, Tris-HCl pH 7.5, 30 °C, 6 h.

Data set [4] has as its target T4, AcbS (Actinoplanes sp. SE50/110, UniProt Q27GS2).
T4 construct: recombinant from pRSET-B in E. coli BL21(DE3)/pLysS, Ni-NTA purified
T4 sequence (Q27GS2 1-709): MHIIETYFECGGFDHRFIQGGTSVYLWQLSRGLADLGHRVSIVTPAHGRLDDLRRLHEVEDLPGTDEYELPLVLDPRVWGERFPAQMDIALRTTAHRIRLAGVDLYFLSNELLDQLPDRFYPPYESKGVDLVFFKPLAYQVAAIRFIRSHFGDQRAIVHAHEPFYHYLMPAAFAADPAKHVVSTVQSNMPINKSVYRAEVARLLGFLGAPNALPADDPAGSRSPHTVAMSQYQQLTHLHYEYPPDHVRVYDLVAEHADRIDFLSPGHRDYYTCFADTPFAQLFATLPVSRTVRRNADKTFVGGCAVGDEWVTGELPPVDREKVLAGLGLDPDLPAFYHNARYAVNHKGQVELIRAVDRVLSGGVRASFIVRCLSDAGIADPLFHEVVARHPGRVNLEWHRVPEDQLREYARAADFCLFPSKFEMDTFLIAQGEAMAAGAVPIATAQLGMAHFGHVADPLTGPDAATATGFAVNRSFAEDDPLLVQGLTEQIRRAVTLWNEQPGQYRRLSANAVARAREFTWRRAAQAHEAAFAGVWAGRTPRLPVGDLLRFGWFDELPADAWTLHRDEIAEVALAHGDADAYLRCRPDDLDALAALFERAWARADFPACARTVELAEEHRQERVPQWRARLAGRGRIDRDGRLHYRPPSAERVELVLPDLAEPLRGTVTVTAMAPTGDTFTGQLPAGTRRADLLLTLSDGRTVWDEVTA
Nature of the data set: LC-QTOF/MS and MS/MS of product acarbose. Type of data set: biochemical. The following applies: GDP-V generated in situ by AcbR from V1P and GTP; 4-aminoDGG […], MgCl2 […], pH […] °C, […] h.

Data set [5] has as its system O=P(O)(O)OCC1=C[C@H](OP(=O)(O)O)[C@H](O)[C@@H](O)[C@@H]1O. Put plainly: purified protein. The conditions noted are these: Tris-HCl 20 mM pH 7.5, 30 °C, AcbJ 1.0 µM.
In data set [6] the test system is O=P(O)(O)O[C@H]1C=C(CO)[C@@H](O)[C@H](O)[C@H]1O. Nature of the data set: purified protein. The conditions noted are these: GTP 1 mM, MgCl2 1 mM, Tris-HCl pH 7.5, 30 °C, AcbR 1.0 µM.

For the compound `OCC1=C[C@H](O)[C@H](O)[C@@H](O)[C@@H]1O` [V], in data set [1], the “PK/LDH coupled assay, A340; LC-MS of product” value is listed as “AcbU can also phosphorylate valienol (V)”. Besides, in data set [2], the “preparative phosphorylation, conversion by PK/LDH assay” value is “phosphorylation of synthetically prepared valienol using the cyclitol kinase ValC”.

With `C[C@H]1O[C@H](O[C@H]2[C@H](O)[C@@H](O)[C@@H](O[C@H]3[C@H](O)[C@@H](O)C(O)O[C@@H]3CO)O[C@@H]2CO)[C@H](O)[C@@H](O)[C@@H]1N[C@H]1C=C(CO)[C@@H](O)[C@H](O)[C@H]1O` (stereo partly drawn) [compound 1, acarbose], in data set [3], the “preparative phosphorylation, conversion by PK/LDH assay” value is “prepared enzymatically from acarbose and ATP using the acarbose kinase AcbK”.

Turning to `O=P(O)(O)OCC1=C[C@H](O)[C@H](O)[C@@H](O)[C@@H]1O` [compound 12, V7P], the “PK/LDH coupled assay, A340; LC-MS of product” value in data set [1] is reported as “V7P is a preferred substrate for AcbU to produce V1,7PP”.

In the case of `Nc1nc2c(ncn2[C@@H]2O[C@H](COP(=O)(O)OP(=O)(O)O[C@H]3C=C(CO)[C@@H](O)[C@H](O)[C@H]3O)[C@@H](O)[C@H]2O)c(=O)[nH]1` [compound 16, GDP-V], the “LC-QTOF/MS and MS/MS of product acarbose” value in data set [4] was “incubation of recombinant AcbS with GDP-V (generated in situ”.

The Km is the substrate concentration at which the rate is half of its maximum. The term kcat denotes the number of substrate molecules converted per active site and unit of time at saturation. On to AcbJ (Actinoplanes sp. SE50/110), for which, in data set [5], the Km came to 817 ± 168 µM and the kcat was found to be 0.367 ± 0.067 s⁻¹.

With AcbR (Actinoplanes sp. SE50/110), in data set [6], the Michaelis-Menten constant (Km) was 412 ± 83 µM and the kcat stood at 0.233 ± 0.017 s⁻¹.
